PubChem BioAssay (NCI)
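Dose response: 5 concentrations. Exposure: 48 h. Format: 96-well plates. Endpoint: linear interpolation; highest concentration if not reached. GI50 = concentration required for 50% inhibition of growth. Definition used: TGI = concentration required for complete inhibition of growth.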 *1 amine or outer side, *2 acyl side, *3 side chain or, on linkers, in order; H or OH if unused. Where a SMILES comes first, the peptide text is derived from it. Bridges are numbered along the chain shown (N, C = ends). Roman numbers before positions name the chains, in order. [ ]: non-standard residue; d: D form. Actinocin(9to1) = Cc1c2oc3c(C)ccc(C(=O)[*:1])c3nc-2c(C(=O)[*:2])c(N)c1=O; NMeV = CN[CH](C(=O)O)C(C)C; Sar = CNCC(=O)O

Assays:
Assay in all cases: inhibition of tumour cell growth, NCI panel, 48 h
MOLT-4 leukemia = tested on: MOLT-4 leukemia
NCI-H522 lung = tested on: NCI-H522 lung
EKVX NSCLC = tested on: EKVX NSCLC
BT-549 breast = tested on: BT-549 breast
HOP-92 NSCLC = tested on: HOP-92 NSCLC
SN12C renal = tested on: SN12C renal
RPMI-8226 leukemia = tested on: RPMI-8226 leukemia
UO-31 renal = tested on: UO-31 renal
HL-60(TB) leukemia = tested on: HL-60(TB) leukemia
LOX IMVI melanoma = tested on: LOX IMVI melanoma
SF-268 CNS = tested on: SF-268 CNS

| Structure (SMILES) | TGI (MOLT-4 leukemia) [µM] | TGI (NCI-H522 lung) [µM] | TGI (EKVX NSCLC) [µM] | TGI (BT-549 breast) [µM] | TGI (HOP-92 NSCLC) [µM] | TGI (SN12C renal) [µM] | TGI (RPMI-8226 leukemia) [µM] | TGI (UO-31 renal) [µM] | TGI (HL-60(TB) leukemia) [µM] | TGI (LOX IMVI melanoma) [µM] | TGI (SF-268 CNS) [µM] | GI50 (HL-60(TB) leukemia) [µM] |
| --- | --- | --- | --- | --- | --- | --- | --- | --- | --- | --- | --- | --- |
| COc1ccc2oc3c(C)cc4c(OC)nnc(OC)c4c3c2c1 | > 100 | > 100 | > 100 | > 100 | > 100 | > 100 | > 100 | > 100 | > 100 | > 100 | > 100 |  |
| CCOC(=O)/C(C#N)=C/c1coc2cc(C)cc(C)c2c1=O | > 100 | > 100 | > 100 | > 100 | > 100 | > 100 | > 100 | > 100 | > 100 | > 100 | > 100 |  |
| CCN(CC)CCCNC(=O)c1cc(-c2nccn2C)nc2ccccc12 | > 100 | > 100 | > 100 | > 100 | > 100 | > 100 | > 100 | > 100 | > 100 | > 100 | > 100 |  |
| N#C/C(N)=C(\C#N)NC=NCCO | > 100 | > 100 | > 100 | > 100 |  | > 100 | > 100 | > 100 | > 100 | > 100 | > 100 |  |
| CC(N)/C(N)=N/O (stereo not given) |  | > 100 | > 100 | > 100 | > 100 | > 100 | > 100 | > 100 | > 100 | > 100 | > 100 |  |
| CCCCCCc1cc2cc(-c3cn4ccsc4n3)c(=O)oc2cc1O | > 100 | > 100 | > 100 | > 100 | > 100 | > 100 | > 100 | > 100 | > 100 | > 100 | > 89.7 |  |
| O=C(O)C1C2c3ccccc3C(c3ccccc32)C1C(=O)NCC1CC1 (stereo not given) | > 100 | 86.9 | > 100 | > 100 | > 100 | > 100 | 85.3 | > 100 | 77.2 | > 100 | > 100 |  |
| O=C(O)Cc1ccc([N+](=O)[O-])cc1[N+](=O)[O-] | > 100 | > 100 | > 100 | > 100 |  | > 100 | > 100 | > 100 | > 100 | > 100 | > 100 |  |
| Cc1cc(OC(=O)Nc2cccc3ccccc23)c(C(C)C)cc1C(=S)Nc1ccccc1 | 52.4 | 29.1 | 61.6 | 32.1 |  |  | 75.8 | 40.2 | 15.1 | 28.7 | 77.6 |  |
| CCOC(=O)CCC(NC(=O)C(N)Cc1ccc(N(CCCl)CCCl)cc1)C(=O)OCC (stereo not given) | 1.99 | 0.853 | 6.53 | 12.4 | 1.59 | 5.72 | 17.7 | 2.92 | 0.586 | 1.63 | 4 |  |
| C=C1c2nc3ccccc3n2C=C(c2ccc(OC)cc2)N1c1ccc(OC)cc1 | > 100 | > 100 | > 100 | 39.8 | 85.5 | 59 | > 100 | 58.5 | > 100 | > 100 |  |  |
| COc1ccc(NC(=S)c2ccc(CN3CCCCC3)s2)cc1 | 61.9 | 32.5 | 41.3 | 44 |  | > 100 | 74.7 | 35.7 | 31.9 | 33.3 | > 100 |  |
| Cc1ccc(S(=O)(=O)N2C3C=CC(C3)[C@@H]2C(Cl)(Cl)Cl)cc1 (stereo not given in full) | 75 | 41.3 | 55 | 32.4 | 38.1 | 44.2 | 32.1 | 59.3 | > 47 | 33.2 | 46.9 |  |
| COC(=O)[C@]1(C)CCC[C@@]2(C)C1CC[C@@]13C=C(C(C)C)[C@@H](CC1=O)CC23 (stereo not given in full) | 31 | 38.5 | 71.6 | 63.4 |  | 41.2 | 40.1 | 49 | 36.4 |  | > 100 |  |
| Cc1ccc2nc(-c3ccccc3)cc(=O)n2c1 | > 100 | > 100 | > 100 | > 100 | > 100 | > 100 | > 100 |  | > 100 |  | > 100 |  |
| C[C@]12[C@@H]3CC[C@H]1[C@@H](O)C(=O)N2CC3 | > 100 | > 100 | > 100 | > 100 | > 100 | > 100 | > 100 | > 100 | > 100 | > 100 | > 100 |  |
| O=C1OC(c2ccccc2)=N/C1=C\c1ccc([N+](=O)[O-])cc1 | 58.1 | > 100 | > 100 | 67 | 76.2 | > 100 | > 100 | > 100 | > 100 | > 100 | > 100 |  |
| Nc1ncc2c(n1)-c1ccccc1OC2N1CCCCC1 (stereo not given) | > 100 | > 100 | > 100 | > 100 | > 100 | > 100 | > 100 | > 100 | > 100 | > 100 | > 100 |  |

| Structure (SMILES) | TGI (MOLT-4 leukemia) [µM] | TGI (NCI-H522 lung) [µM] | TGI (EKVX NSCLC) [µM] | TGI (BT-549 breast) [µM] | TGI (HOP-92 NSCLC) [µM] | TGI (SN12C renal) [µM] | TGI (RPMI-8226 leukemia) [µM] | TGI (UO-31 renal) [µM] | TGI (HL-60(TB) leukemia) [µM] | TGI (LOX IMVI melanoma) [µM] | TGI (SF-268 CNS) [µM] | GI50 (HL-60(TB) leukemia) [µM] |
| --- | --- | --- | --- | --- | --- | --- | --- | --- | --- | --- | --- | --- |
| N=c1oc2ccccc2cc1C(=O)NC12CC3CC(CC(C3)C1)C2 | 10.2 | 14.8 | > 82.8 | 50.6 | > 100 | > 100 | 31.1 | 0.471 | 30.7 | > 59.8 | > 100 |  |
| O=C1NC2(CCN(CCc3ccccc3)CC2)Oc2ccccc21 | > 100 | > 100 | > 100 | > 100 | 69.4 | > 100 | > 100 | > 100 | > 100 | > 100 | > 100 |  |
| COc1ccc(C2c3cc4c(cc3OC3(OC)COC(=O)C23)OCO4)c(OC)c1 (stereo not given) | 71.2 | > 22.5 | > 73.1 | > 100 | 97.6 | > 100 | > 45.5 | > 100 | 9.31 | > 100 | > 100 |  |
| COc1cc(S(=O)(=O)Nc2ccc(-c3csc(N4C(=O)CSC4c4cccc(Oc5ccccc5)c4)n3)cc2)ccc1Cl (stereo not given) | > 100 | > 100 | > 100 | > 100 | > 100 | > 100 | > 100 | > 100 | 48.9 | > 100 | > 100 |  |
| CC(C)=C[C@H]1C[C@H](C)[C@H]2CC[C@H](C)c3c2c1c(C)c1ncoc31 | 32.3 | 31.5 | 30 | 36.3 | 31.4 | 35.6 | 36.9 | 31.5 | 44.8 | 37.7 | 46 |  |
| Cc1c2oc3c(C)ccc(C(=O)NC4C(=O)NC(C(C)C)C(=O)N5CCCC5C(=O)N(C)CC(=O)N(C)C(C(C)C)C(=O)OC4C)c3nc-2c(C(=O)NC2C(=O)NC(C(C)C)C(=O)N3CCCC3C(=O)N(C)CC(=O)N(C)C(C(C)C)C(=O)OC2C)c(N)c1=O (stereo not given) (I: TVP[Sar][NMeV] / II: TVP[Sar][NMeV]; ester I:1-I:C, II:1-II:C; linker I:N-II:N via Actinocin(9to1); configuration not given here) | 0.00137 | 0.00137 | > 0.779 | 0.0292 | 0.0203 | 0.0379 | > 1 | 0.12 | 0.0237 |  | 0.0269 | 0.000288 |
| Cc1ccc(S(=O)(=O)N2CC2CCCCC=O)cc1 (stereo not given) | > 100 | > 100 | > 100 | > 100 | > 100 | > 100 | > 100 | > 100 |  | 56 | > 100 |  |
| CC1=C/C(=N\NC(N)=S)C(C(O)(C(F)(F)F)C(F)(F)F)C(C)(C)C1 (stereo not given) | > 10 | > 10 | > 10 | > 10 | > 10 | > 10 | > 10 |  | > 10 | > 10 | > 10 |  |
| CCOC(=O)c1ccc(-c2cc(C)no2)[nH]1 | > 100 | > 100 | > 100 | > 100 | > 100 | > 100 | > 100 | > 100 | > 100 | > 100 | > 100 |  |
| COC(=O)c1ccc(Cc2cc(Cc3ccc(C(=O)OC)cc3)cc(Cc3ccc(C(=O)OC)cc3)c2)cc1 | > 25 | > 25 | > 25 | > 25 | > 25 | > 25 | > 25 | > 25 | > 25 | > 25 | > 25 |  |
| COCOC1/C=C/CCCCC(=O)C(C)C#CC1 (stereo not given) | 5.64 | 3.37 | 23.1 | 19.3 | 8.46 | 19 | 5.96 | 18.9 | 4.33 | 7.36 | 35.1 |  |
| O=C1C(Br)=C(Br)C(=O)c2ccc(=O)ccc21 | 23.5 | 7.25 | > 90.9 | 44.6 | 34.8 | 33.7 | 43 | 34.9 | 13.7 | 41.2 | > 77 |  |
| O=C1c2cccc3cc([N+](=O)[O-])cc(c23)C(=O)N1Nc1ccc([N+](=O)[O-])cc1[N+](=O)[O-] | 11.8 | 28.6 | > 46.4 | > 31.6 | > 31.6 | > 73.5 | > 31.6 | 33.1 | 27.5 | 19.4 | > 31.6 |  |
| O=C1SC(SCc2ccccc2)=NC12CC2c1ccccc1 (stereo not given) | 10.3 | 33.5 | 44 | 52.8 | 53.1 | 44.3 | 48.3 | 41.2 | 21.5 | 38 | 70.1 |  |
| CC(C)(CN1CCCCC1)C(/C=C/c1ccc(Cl)cc1)=N\NC(=O)N/N=C(/C=C/c1ccc(Cl)cc1)C(C)(C)CN1CCCCC1 | 9.97 | 8.05 | 18.8 | 13.2 | 8.72 | 14.6 | 54.8 | 9.03 | > 19.9 | 5.97 | 21.6 |  |
| COc1ccc(C(SCCO)(c2ccccc2)c2ccc(OC)cc2)cc1 | 50.2 | 24.9 | 29.7 | 36.8 | 29.1 | 30.5 | 69.1 | 31.7 | 47.2 | 33.8 | 26.8 |  |
| O=C(C(=O)n1ccc2ccccc21)n1ccc2ccccc21 | > 100 | > 100 | > 100 | > 100 | > 100 | > 100 | > 100 | > 100 |  | > 100 | > 100 |  |
| O=S(=O)(O)c1cc(N=Nc2c(O)ccc3ccccc23)cc2c(S(=O)(=O)O)cccc12 | > 100 | > 100 | > 100 | > 100 | > 100 |  | > 100 | > 100 | > 100 |  | > 100 |  |
